Common to all, as to assay: growth of human tumour cells (NCI), 48 h
Test [1] deals with A549.
In test [2] the test system is CAKI-1.
Test [3] concerns DU-145.
The subject of test [4] is EKVX.
In test [5] the test system is HOP-62.
Test [6] deals with HT-29.
Test [7] concerns LOX IMVI.
Test [8] has as its system M14.
Test [9] has as its system NCI-H23.
Test [10] has as its system OVCAR-4.
Test [11] has as its system OVCAR-5.
Test [12] deals with OVCAR-8.
In test [13] the test system is SK-MEL-2.
Test [14] relates to SN12C.
The test system of test [15] is SNB-19.
Test [16] has as its system SR.
The subject of test [17] is T47D.
Test [18] relates to TK-10.
Test [19] concerns UACC-257.
Test [20] concerns SK-OV-3.

Molecules are shown by their SMILES.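 Cells were grown in 96-well plates and exposed to each compound for 48 hours at five concentrations; endpoints were interpolated linearly between bracketing concentrations, or set to the highest concentration if not reached. Here, GI50 denotes the concentration required for 50% inhibition of growth.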 Activity calls are given as the source filed them. Rule as the data show it: active = GI50 up to about 1.1 µM and inactive = higher.

Take `O=c1[nH]nc(Cc2ccccc2)[nH]1`: the GI50 in test [1], in test [2], in test [3], in test [4], in test [5] and in test [6] was > 100 µM (inactive) in each case. In addition, the GI50 in [7], in test [8], in test [9], in test [10], in test [11] and in [12] was > 100 µM (inactive) throughout. Also, the GI50 in test [13] is > 100 µM (inactive); in test [14] it was > 100 µM (inactive); in [15], > 100 µM (inactive); in [16], 44.6 µM (inactive); in test [17], > 100 µM (inactive); in test [18] it was > 100 µM (inactive). Further, the GI50 in test [19] was > 100 µM (inactive).

As to `O=c1oc2c/c(=C\c3ccc([N+](=O)[O-])cc3)c(=O)c3cccc1c3-2`, the GI50 in [1] is > 100 µM (inactive); in test [3], > 100 µM (inactive); in test [4], > 100 µM (inactive); in test [5], 38.6 µM (inactive); in test [6] it was > 100 µM (inactive); in test [7], 35.2 µM (inactive). Moreover, the GI50 is > 100 µM (inactive) in test [8]; > 100 µM (inactive) in test [9]; > 100 µM (inactive) in [11]; 30.8 µM (inactive) in test [12]; > 100 µM (inactive) in test [13]; > 100 µM (inactive) in [20]. Also, the GI50 in [14] was > 100 µM (inactive); in test [15], > 100 µM (inactive); in test [16], > 100 µM (inactive); in [17], > 100 µM (inactive); in test [18], 21.9 µM (inactive); in [19] it was > 100 µM (inactive).

As for `Cc1ccc(S(=O)(=O)N2CCN(S(=O)(=O)c3ccc(C)cc3)CCN(S(=O)(=O)c3ccc(C)cc3)Cc3cc(C#N)c(C#N)cc3CN(S(=O)(=O)c3ccc(C)cc3)CC2)cc1`, the GI50 in test [1], in test [2], in test [3], in test [4], in test [5] and in [6] was > 100 µM (inactive) throughout. Besides, the GI50 is > 100 µM (inactive) in test [7]; 25.8 µM (inactive) in test [8]; > 100 µM (inactive) in [9]; > 100 µM (inactive) in test [10]; > 100 µM (inactive) in test [11]; > 100 µM (inactive) in test [12]. The GI50 was > 100 µM (inactive) in [20]; > 100 µM (inactive) in [14]; 51.1 µM (inactive) in [15]; > 100 µM (inactive) in test [16]; > 100 µM (inactive) in [17]; 86.7 µM (inactive) in [18]. For the same compound, the GI50 in test [19] is > 100 µM (inactive).

Consider `Cc1cn(CCC(N)C(=O)O)c(=O)[nH]c1=O` (centres undefined), for which the GI50 in test [1], in [3], in test [4], in [5], in test [6] and in test [7] was > 100 µM (inactive) throughout. For the same compound, the GI50 in [8], in [9], in test [10], in test [11], in test [12] and in test [13] was > 100 µM (inactive) in each case. For the same compound, the GI50 in [20], in [14], in test [15], in test [16], in [17] and in test [18] was > 100 µM (inactive) in each case. Further, in [19], the GI50 is > 100 µM (inactive).

Take `O=c1c(/C=C/c2c(O)ccc3ccccc23)nnc2sc(-c3cccc(Br)c3)nn12`: the GI50 was 32.1 µM (inactive) in test [1]; 15.3 µM (inactive) in test [2]; 16.1 µM (inactive) in test [3]; 16.7 µM (inactive) in [4]; 24.8 µM (inactive) in test [5]; 29.9 µM (inactive) in test [6]. Moreover, the GI50 in test [7] is 4.88 µM (inactive); in [8] it was 15.8 µM (inactive); in test [9], 14.7 µM (inactive); in [10], 4.8 µM (inactive); in test [11], 19.5 µM (inactive); in test [12], 3.44 µM (inactive). Also, the GI50 in test [13] was 23.6 µM (inactive); in test [20] it was 30.1 µM (inactive); in [15], 39 µM (inactive); in test [16] it was 4.72 µM (inactive); in test [17] it was 15 µM (inactive); in [19], 23.7 µM (inactive).

Consider `CN(C)Cc1cc(/N=N/c2ccccc2)ccc1O`, for which the GI50 in test [1] is 92.9 µM (inactive); in test [2], 62.4 µM (inactive); in test [3] it was 22.7 µM (inactive); in test [4] it was 40 µM (inactive); in test [5] it was 39.7 µM (inactive); in test [6], 32.4 µM (inactive). For the same compound, the GI50 was 26.7 µM (inactive) in test [7]; 38.9 µM (inactive) in [8]; 98.9 µM (inactive) in test [9]; 42.7 µM (inactive) in test [11]; 76.4 µM (inactive) in [12]; 38.9 µM (inactive) in test [13]. The GI50 in test [14] was > 100 µM (inactive); in test [15], > 100 µM (inactive); in [16], 59.2 µM (inactive); in test [17] it was 44.1 µM (inactive); in test [18] it was 34.6 µM (inactive); in test [19], 25.6 µM (inactive).

In the case of `O=C1c2ccccc2C(=O)c2c(NCCCN3CCOCC3)ccc(NCCCN3CCOCC3)c21`, the GI50 in test [1] is 4.18 µM (inactive); in [2] it was 4.45 µM (inactive); in test [3], < 0.01 µM (active); in test [4], 11 µM (inactive); in test [5], 2.12 µM (inactive); in [6], 1.14 µM (inactive). In addition, the GI50 in test [7] is 1.54 µM (inactive); in test [8], 3.1 µM (inactive); in [9] it was < 0.01 µM (active); in [10], 2.67 µM (inactive); in test [11], 9.42 µM (inactive); in test [12] it was 1.9 µM (inactive). The GI50 was 8.24 µM (inactive) in test [13]; 2.18 µM (inactive) in test [14]; 5.3 µM (inactive) in test [15]; 5.57 µM (inactive) in test [16]; 29.3 µM (inactive) in [17]; 12.9 µM (inactive) in test [18]. The GI50 in test [19] is 2.96 µM (inactive).

For the compound `COC(=O)[C@@H](NC1(c2ccccc2)c2ccccc2-c2ccccc21)[C@H](OC(=O)[C@H]1CCCN1S(=O)(=O)c1ccccc1)C(=O)OC`, the GI50 is > 100 µM (inactive) in test [1]; > 100 µM (inactive) in [3]; 99.5 µM (inactive) in test [4]; > 100 µM (inactive) in [5]; > 100 µM (inactive) in [6]; > 100 µM (inactive) in test [7]. Moreover, the GI50 was > 100 µM (inactive) in test [8]; > 100 µM (inactive) in [9]; > 100 µM (inactive) in test [10]; > 100 µM (inactive) in test [11]; > 100 µM (inactive) in test [12]; 39.8 µM (inactive) in [13]. Also, the GI50 in test [20] was 70.6 µM (inactive); in [14], > 100 µM (inactive); in [15] it was > 100 µM (inactive); in [16], > 100 µM (inactive); in [17] it was > 100 µM (inactive); in test [18] it was > 100 µM (inactive). In addition, the GI50 in test [19] is > 100 µM (inactive).

(Values after ChEMBL document CHEMBL1201862, “PubChem BioAssay data set” (2004).)
